This passage reports solubility and EC50 results from patent publication US8722849B2, “Polypeptides” (Novo Nordisk A/S, priority 2011, dated 2014).

pEC50: −log10 of the molar value. Values after ≈ are worked out from the molar mass of the structure shown. Where two headings read alike, the source gives them in different places. Starred links: 1 amine or outer side, 2 acyl side, 3 side chain; linkers in the order of their positions; H or OH if unused. Positions of bridges follow the written chain, without caps; N, C: chain ends. Residues, ends and D or L forms follow the SMILES beside them. *: point of attachment. C20 diacid = O=C(O)CCCCCCCCCCCCCCCCCCC(=O)*; γGlu = O=C(O)[C@H](CCC(=O)[*:2])N[*:1]

Data set [1] is described as follows: Assay (IV) determination of solubility. Format: physicochemical. The procedure, abridged: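 Stock ~500 nmol/ml in water; 1:1 with 100 mM buffer, pH 3.0–8.0 (glycylglycine ≤5.0, bistrispropane ≥6.0); 18 h RT; spin; HPLC quantitation of soluble polypeptide.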
In data set [2] the target is T1, human calcitonin receptor (Homo sapiens, UniProt P30988).
T1 construct: expressed in transfected cells; host or cells: BHK570
T1 sequence (P30988 25-474): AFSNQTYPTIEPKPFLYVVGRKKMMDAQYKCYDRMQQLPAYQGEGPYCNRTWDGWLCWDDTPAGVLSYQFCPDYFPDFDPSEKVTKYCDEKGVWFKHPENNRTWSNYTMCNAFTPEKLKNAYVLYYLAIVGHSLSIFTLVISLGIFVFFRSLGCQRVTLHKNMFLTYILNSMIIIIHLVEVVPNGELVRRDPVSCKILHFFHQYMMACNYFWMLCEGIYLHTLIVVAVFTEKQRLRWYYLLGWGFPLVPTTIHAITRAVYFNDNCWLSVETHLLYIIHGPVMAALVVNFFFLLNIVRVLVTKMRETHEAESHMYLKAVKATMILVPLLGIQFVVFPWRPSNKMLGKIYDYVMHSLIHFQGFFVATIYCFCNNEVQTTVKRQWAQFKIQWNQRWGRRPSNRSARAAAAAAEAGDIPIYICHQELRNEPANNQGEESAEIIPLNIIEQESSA
In words: Assay (II)a functional CRE-luciferase assay, human calcitonin receptor. The conditions noted are these: Table 7; human calcitonin (CTa) receptor. The data set is classed as cell-based. The text has this: (§1) 1. Luciferase Assay Outline
(§2) Activation of calcitonin and amylin (coexpression of calcitonin receptor and receptor activity modifying proteins (RAMP)) receptors lead to increased intracellular concentrations of cAMP. Consequently, transcription is activated by promoters containing multiple copies of the cAMP response element (CRE). It is thus possible to measure amylin activity by the use of a CRE luciferase reporter gene introduced into BHK cells also expressing calcitonin or amylin receptors.
(§3) A BHK570 cell line was stably transfected with the human calcitonin receptor and a CRE-responsive luciferase reporter gene. The cell line was further transfected with RAMP-3, using standard methods. This turns the calcitonin receptor into an amylin 3(a) receptor. Methotrexate, Neomycin, and Hygromycin are selection markers for luciferase, the calcitonin receptor, and RAMP-3, respectively.
(§4) To perform activity assays, BHK calcitonin (a) receptor- or amylin 3(a)-receptor/CRE-luc cells were seeded in white 96 well culture plates at a density of about 20.000 cells/well. […] Further, 50 μl/well of standard or sample in assay buffer were added. After 3 hours incubation at 37° C. and 5% CO2, the assay medium with standard or sample were removed and replaced by 100 μl/well PBS. Further, 100 μl/well LucLite™ was added. The plates were sealed and incubated at room temperature for 30 minutes. Finally, luminescence was measured on a TopCounter (Packard) in SPC (single photon counting) mode.

The target in data set [3] is T2, human amylin receptor (amylin 3(a) receptor: human calcitonin receptor + RAMP-3) (Homo sapiens, UniProt O60896+P30988).
T2 construct: expressed in transfected cells; host or cells: BHK570
T2 sequence (P30988 25-474): T1 sequence (P30988 25-474)
T2 sequence (O60896 24-148 partner): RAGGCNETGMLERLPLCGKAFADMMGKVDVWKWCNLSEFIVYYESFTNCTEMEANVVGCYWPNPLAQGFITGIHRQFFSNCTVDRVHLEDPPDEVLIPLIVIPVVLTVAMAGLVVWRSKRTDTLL
Nature of the data set: Assay (II)a functional CRE-luciferase assay, human amylin receptor. The conditions noted are these: BHK amylin 3(a)-receptor/CRE-luc cells. The data set is classed as cell-based.
Excerpt: as §1, §2, §3, §4

Where [4] appears, read: bistrispropane buffer, pH 7.5, pH 7.5, read-out: Solubility pH 7.5.
[5] abbreviates: bistrispropane buffer, pH 8, pH 8.0, read-out: Solubility pH 8.0.
[6] abbreviates: glycylglycine buffer, pH 3, pH 3.0, read-out: Solubility pH 3.0.
[7] abbreviates: glycylglycine buffer, pH 4, pH 4.0, 18 hours at room temperature, Table 2, read-out: Solubility pH 4.0.
Setting [8] is: glycylglycine buffer, pH 4, pH 4.0, read-out: Solubility pH 4.0.
Setting [9] is: bistrispropane buffer, pH 6, pH 6.0, read-out: Solubility pH 6.0.
Setting [10] is: bistrispropane buffer, pH 6.5, pH 6.5, read-out: Solubility pH 6.5.
Setting [11] is: bistrispropane buffer, pH 7, pH 7.0, 18 hours at room temperature, Table 3, read-out: Solubility pH 7.0.
Where [12] appears, read: bistrispropane buffer, pH 7, pH 7.0, read-out: Solubility pH 7.0.
Where [13] appears, read: glycylglycine buffer, pH 5, pH 5.0, read-out: Solubility pH 5.0.

Usually solubility stands for the concentration that dissolves in the medium under given conditions. By pEC50 is commonly meant the EC50 on a negative log10 scale, so that one unit is a factor of ten. As for `CC[C@H](C)[C@H](NC(=O)[C@@H]1CCCN1C(=O)CNC(=O)[C@H](Cc1ccccc1)NC(=O)[C@H](CC(N)=O)NC(=O)[C@H](CC(N)=O)NC(=O)[C@H](CO)NC(=O)[C@H](CO)NC(=O)[C@H](CCCNC(=N)N)NC(=O)[C@@H](NC(=O)[C@H](CC(C)C)NC(=O)[C@H](Cc1ccccc1)NC(=O)[C@H](CCC(=O)O)NC(=O)[C@H](C)NC(=O)[C@H](CC(C)C)NC(=O)[C@H](CCCNC(=N)N)NC(=O)[C@H](CCC(N)=O)NC(=O)[C@@H](NC(=O)[C@H](C)NC(=O)[C@@H]1CSSC[C@H](NC(=O)[C@H](Cc2cnc[nH]2)NC(=O)CC[C@H](NC(=O)CCCCCCCCCCCCCCCCCCC(=O)O)C(=O)O)C(=O)N[C@@H](CC(N)=O)C(=O)N[C@@H]([C@@H](C)O)C(=O)N[C@@H](C)C(=O)N[C@@H]([C@@H](C)O)C(=O)N1)[C@@H](C)O)C(C)C)C(=O)N[C@@H](CC(C)C)C(=O)N1CCC[C@H]1C(=O)N1CCC[C@H]1C(=O)N[C@H](C(=O)N[C@@H](CC(N)=O)C(=O)N[C@H](C(=O)NCC(=O)N[C@@H](CO)C(=O)N[C@@H](CC(N)=O)C(=O)N[C@H](C(=O)N[C@@H](Cc1ccc(O)cc1)C(N)=O)[C@@H](C)O)C(C)C)[C@@H](C)O` [Example 15, N-alpha-[(S)-4-Carboxy-4-(19-carboxynonadecanoylamino)butyryl]-[His1,Glu14,Arg18]-pramlintide] ({C20 diacid-γGlu}-HCNTATCATQRLAEFLVRSSNNFGPILPPTNVGSNTY-NH2; disulfide 2-7), the solubility at 18 h in data set [1] (setting [4]) is 56 µM (≈ 249 µg/mL); in data set [1] (setting [5]) it was 134 µM (≈ 596 µg/mL); in data set [1] (setting [6]), greater than 200 µM; in data set [1] (setting [7]), greater than 200 µM; in data set [1] (setting [8]) it was greater than 200 µM; in data set [1] (pH 5.0, read-out: Solubility pH 5.0) it was 10 µM (≈ 44.5 µg/mL). The solubility at 18 h in data set [1] (pH 6.0, read-out: Solubility pH 6.0) turned out to be 1 µM (≈ 4.45 µg/mL); in data set [1] (pH 6.5, read-out: Solubility pH 6.5) it was 1 µM (≈ 4.45 µg/mL); in data set [1] (pH 7.0, read-out: Solubility pH 7.0), 10 µM (≈ 44.5 µg/mL). Besides, the pEC50 in data set [2] was 9.90; in data set [3] (Table 2), 10.08.

In the case of `CC[C@H](C)[C@H](NC(=O)[C@@H]1CCCN1C(=O)CNC(=O)[C@H](Cc1ccccc1)NC(=O)[C@H](CO)NC(=O)[C@H](CO)NC(=O)[C@H](CO)NC(=O)[C@H](CO)NC(=O)[C@H](CCCNC(=N)N)NC(=O)[C@H](Cc1c[nH]cn1)NC(=O)[C@H](CC(C)C)NC(=O)[C@H](Cc1ccccc1)NC(=O)[C@H](CCC(=O)O)NC(=O)[C@H](C)NC(=O)[C@H](CC(C)C)NC(=O)[C@H](CCCNC(=N)N)NC(=O)[C@H](CCC(N)=O)NC(=O)[C@@H](NC(=O)[C@H](C)NC(=O)[C@@H]1CSSC[C@H](NC(=O)[C@H](Cc2c[nH]cn2)NC(=O)CC[C@H](NC(=O)CCCCCCCCCCCCCCCCCCC(=O)O)C(=O)O)C(=O)NCC(=O)N[C@@H]([C@@H](C)O)C(=O)N[C@@H](C)C(=O)N[C@@H]([C@@H](C)O)C(=O)N1)[C@@H](C)O)C(=O)N[C@@H](CC(C)C)C(=O)N1CCC[C@H]1C(=O)N1CCC[C@H]1C(=O)N[C@H](C(=O)N[C@@H](CCC(=O)O)C(=O)N[C@H](C(=O)NCC(=O)N[C@@H](CO)C(=O)N[C@@H](CCC(=O)O)C(=O)N[C@H](C(=O)N[C@@H](Cc1ccc(O)cc1)C(N)=O)[C@@H](C)O)C(C)C)[C@@H](C)O` [Example 16, N-alpha-[(S)-4-Carboxy-4-(19-carboxynonadecanoylamino)butyryl]-[His1,Gly3,Glu14,His17,Arg18,Ser21,Ser22,Glu31,Glu35]-pramlintide] ({C20 diacid-γGlu}-HCGTATCATQRLAEFLHRSSSSFGPILPPTEVGSETY-NH2; disulfide 2-7 (inferred)), the solubility at 18 h in data set [1] (setting [9]) came out at 34 µM (≈ 150 µg/mL); in data set [1] (setting [10]), 12 µM (≈ 52.8 µg/mL); in data set [1] (setting [11]), 104 µM (≈ 458 µg/mL); in data set [1] (setting [12]) it was 104 µM (≈ 458 µg/mL); in data set [1] (setting [4]), 122 µM (≈ 537 µg/mL); in data set [1] (setting [5]), 129 µM (≈ 568 µg/mL). Moreover, the solubility at 18 h in data set [1] (setting [6]) was 179 µM (≈ 788 µg/mL); in data set [1] (setting [8]), 80 µM (≈ 352 µg/mL); in data set [1] (setting [13]) it was 1 µM (≈ 4.4 µg/mL). Besides, the pEC50 in data set [2] was 9.70; in data set [3] (Table 3), 9.50.

As for `CC[C@H](C)[C@H](NC(=O)[C@@H]1CCCN1C(=O)CNC(=O)[C@H](Cc1ccccc1)NC(=O)[C@H](CC(N)=O)NC(=O)[C@H](CC(N)=O)NC(=O)[C@H](CO)NC(=O)[C@H](CO)NC(=O)[C@H](Cc1cnc[nH]1)NC(=O)[C@H](Cc1cnc[nH]1)NC(=O)[C@H](CC(C)C)NC(=O)[C@H](Cc1ccccc1)NC(=O)[C@H](CCC(=O)O)NC(=O)[C@H](C)NC(=O)[C@H](CC(C)C)NC(=O)[C@H](CCCNC(=N)N)NC(=O)[C@H](CCC(N)=O)NC(=O)[C@@H](NC(=O)[C@H](C)NC(=O)[C@@H]1CSSC[C@H](NC(=O)CC[C@H](NC(=O)CCCCCCCCCCCCCCCCCCC(=O)O)C(=O)O)C(=O)N[C@@H](CC(N)=O)C(=O)N[C@@H]([C@@H](C)O)C(=O)N[C@@H](C)C(=O)N[C@@H]([C@@H](C)O)C(=O)N1)[C@@H](C)O)C(=O)N[C@@H](CC(C)C)C(=O)N1CCC[C@H]1C(=O)N1CCC[C@H]1C(=O)N[C@H](C(=O)N[C@@H](CC(N)=O)C(=O)N[C@H](C(=O)NCC(=O)N[C@@H](CO)C(=O)N[C@@H](CC(N)=O)C(=O)N[C@H](C(=O)N[C@@H](Cc1ccc(O)cc1)C(N)=O)[C@@H](C)O)C(C)C)[C@@H](C)O` [Example 28, N-alpha-[(S)-4-Carboxy-4-(19-carboxynonadecanoylamino)butyryl]-[des1,Glu14,His17]-pramlintide] ({C20 diacid-γGlu}-CNTATCATQRLAEFLHHSSNNFGPILPPTNVGSNTY-NH2; disulfide 1-6), the solubility at 18 h in data set [1] (setting [9]), in data set [1] (setting [10]), in data set [1] (setting [11]), in data set [1] (setting [12]), in data set [1] (setting [4]) and in data set [1] (setting [5]) was greater than 200 µM each time. The solubility at 18 h in data set [1] (setting [6]), in data set [1] (setting [7]), in data set [1] (setting [8]) and in data set [1] (setting [13]) was greater than 200 µM each time. For the same molecule, the pEC50 in data set [2] is 9.59; in data set [3] (Table 2), 9.75.
